Assay results as given in PMC8502973 (Frontiers in Physiology, 2021).
“Also recorded” adds a separate entry of the source.

Experiments:
[1] = Excipient (HP-CD) effects on food intake and body weight; assay type: in vivo; conditions: 2% HP-CD/saline, 1 mL/kg, 7 days, lean male rats n = 5
Method: As the excipient used to place ASK1476 in solution, HP-CD, was used in excess, a preliminary experiment was run to examine whether it produces any anorectic effects independently. Testing consisted of a 7-day normal saline treated phase followed by a 7-day 2% HP-CD/saline solution (dose 1 mL/kg) treated phase in lean male rats (n = 5; at start of HP-CD treatment: mean 410 g, SD 26 g). […] Food intake was continuously recorded using AccuScan DietMax (currently OmniTech Electronics, Inc., Diet System) cages and data were binned into 15-min intervals for analysis. The start of the 24-h food intake period aligned to the lights turning off in the animal room. Body weight was recorded, and treatment injections were administered just prior to the start of the dark cycle.

V2R = V2R agonist; no reference given; cited from earlier work
Text: Whereas the overall profile of ASK1476 met the primary aim of our studies including the enhanced stability of the OXTR activator in vivo, the molecule did display a significant activation of the V2R. As mentioned above, the receptor plays the key role in both urine and water homeostasis.

hV1aR = system: hV1aR; design: method as in 3 sources, one per row (each row's own in cited_ref): ref Wiśniewski et al. (2014) ||| ref Modi et al. (2016) ||| ref Modi et al., 2016; conditions: OXT; ref Wiśniewski et al. (2014); cited from earlier work
[2] = Long-term: gross motor activity and body temperature (Mini-Mitter transponders); assay type: in vivo, male DIO Sprague Dawley rats; conditions: 28-day study, n = 5 per group, first 12 days analysed
Text: (§1) Male DIO Sprague Dawley rats (n = 24) were generated as outlined above and were 644.5 g (50 g) at the start of drug treatment. The animals were divided into three treatment groups (n = 8 each) balanced for body weight, body weight gain during baseline, food intake, and Lee Index [body weight^(1/3)/snout to anus length (mm)] ([Lee, 1929]; [Simson and Gold, 1982]) as an indicator of adiposity (Figure 2). In a subset of the animals (n = 5 per group, balanced for prior mentioned criteria), Mini-Mitter transponders (PDT-4000 E-Mitter, Respironics Inc.) were implanted posterior to the left scapula at least 9 days prior to start of baseline measures to ensure sufficient recovery time. Body temperature and gross motor activity were continuously recorded via these transponders. […] High fat diet and water were provided ad libitum and intake was recorded with daily hopper and water bottle weighs at time of body weight assessment just prior to drug administration. Blood samples were taken at start of intervention by tail vein bleeding and via cardiac puncture under an isoflurane induced surgical plane of anesthesia at euthanasia. Animals were euthanized on treatment day 29, 4 h after receiving a dose of their assigned treatment, via decapitation under isoflurane anesthesia immediately following blood draw. Body composition was assessed on carcasses.
For comparisons of mean longitudinal changes in body temperature and activity, only the first 12 days of treatment, divided into three 4-day phases, were included in the analysis. These 4-day phases allowed for analyses to consider the ASK1476 dose titration.

[3] = design: method as in Freeman et al., 2016; conditions: peripheral administration, macaques; ref Freeman et al., 2016; cited from earlier work
[4] = Dose escalation: kaolin intake (pica, nausea/visceral malaise); assay type: in vivo, male DIO Sprague Dawley rats
Method: (§2) Sprague Dawley rats (male, ∼4 weeks of age, 51–75 g body weight) were switched from standard chow to a high fat diet (Research Diets, Diet # D12492, 60, 20, 20%kcal from fat, protein, and carbohydrate, respectively, 5.21 kcal/g; stored at −20°C). The rats were maintained on this diet for approximately 15 weeks prior to the start of experiments to develop a diet-induced overweight (DIO) model. Animals were individually housed on a 12 h/12 h light/dark cycle (lights on at 04:00 h) in a temperature (23°C) and humidity (mean 50%, SD 10%) controlled room. All body weight measurements were made just prior to the start of the dark cycle.
(§3) Sequential rounds of a 3-day baseline phase (vehicle treated), a 3-day treatment phase, and a washout phase (2–5 days as necessary) were tested. […] High fat diet was accessible to the rats from all but the last 6 h of the light cycle and water was provided ad libitum. This daily period of food restriction was used to prevent incidental feeding in the event animals were disturbed from their sleep by noise from surrounding rooms. To assess a potential pica response (nausea/visceral malaise) in animals, powdered kaolin (Sigma-Aldrich, K1512) was made available on drug treatment days with a restriction period similar to the high fat diet. Prior to the first experiment, rats were provided access to kaolin for 2 days so that they could familiarize themselves with it prior to start of testing. Food and kaolin intake were continuously recorded using AccuScan DietMax (currently OmniTech Electronics, Inc., Diet System) cages. The high fat diet was compressed in the food tray to form a solid block of food. This allows for more accurate meal size measurements by preventing the animals from removing entire pellets at time. All food and kaolin intake data were binned into 15-min intervals for analysis and the start of the 24-h food intake period aligned to the lights turning off in the animal room. Body weight was recorded, and treatment injections were administered just prior to the start of the dark cycle.

[5] = 2015, cited from earlier work
Text: OXT is a downstream target of the adipose tissue hormone leptin.

[6] = cited from earlier work
Text: (§4) Finally, the potential for toxic side effects upon chronic administration at high concentration and/or f ...

Toxicity / mortality = assay type: in vivo; conditions: rat, in vivo, sc
[7] = Long-term (28-day) drug intervention: body weight; assay type: in vivo, male DIO Sprague Dawley rats
Method: as §2, §1
From treatment day 8 on the doses were maintained to assess long-term efficacy at a therapeutically meaningful dose.

[8] = Dose escalation: water intake; assay type: in vivo, male DIO Sprague Dawley rats; conditions: sc once daily; ASK1476 F(1.80, 12.61) = 3.15, p = 0.082; OXT F(1.68, 11.72) = 4.05, p = 0.086
Method: as §2
(§5) Sequential rounds of a 3-day baseline phase (vehicle treated), a 3-day treatment phase, and a washout phase (2–5 days as necessary) were tested. […] High fat diet was accessible to the rats from all but the last 6 h of the light cycle and water was provided ad libitum. This daily period of food restriction was used to prevent incidental feeding in the event animals were disturbed from their sleep by noise from surrounding rooms. […] Food and kaolin intake were continuously recorded using AccuScan DietMax (currently OmniTech Electronics, Inc., Diet System) cages. […] Body weight was recorded, and treatment injections were administered just prior to the start of the dark cycle.

[9] = Dose escalation: food intake; assay type: in vivo, male DIO Sprague Dawley rats
Method: as §2, §3

[10] = Dose escalation: body weight change; assay type: in vivo, male DIO Sprague Dawley rats; conditions: sc once daily
Method: as §2, §5

hOXTR = system: hOXTR; design: method as in 2 sources, one per row (each row's own in cited_ref): ref Wiśniewski et al. (2014) ||| ref Modi et al. (2016); conditions: OXT; ref Wiśniewski et al. (2014); cited from earlier work
[11] = system: OXTR compared with the V1aR; design: method as in Akerlund et al., 1999; conditions: ref Akerlund et al., 1999; cited from earlier work
Text: as §4

[12] = Long-term: body composition of carcasses by quantitative magnetic resonance; assay type: in vivo, male DIO Sprague Dawley rats
Text: as §1
Body composition (total and relative fat mass, lean mass, and water content) was assessed on carcasses from the long-term drug intervention study using Quantitative Magnetic Resonance (EchoMRI 4-in-1, Echo Medical Systems, Houston, TX) at the Rodent Metabolic and Behavioral Phenotyping Core at the VA Puget Sound Health Care System (VAPSHCS).

## Hydroxypropyl-β-cyclodextrin [HP-CD]
[1]; 95% CU −0.19 to 0.71, p = 0.187
  7-day food intake, difference vs saline: 0.26 g
[1]; 95% CU −0.99 to 0.95, p = 0.950
  body weight gain, difference vs saline: -0.02 g

## desmopressin
V2R
  side effects in the clinical setting: hyponatremia and renal water retention

## oxytocin [OXT]
hV1aR
  EC50: 10 nM
[2]
  locomotor activity or body temperature: did not find any evidence
[2]; listed as oxytocin
  locomotor activity or body temperature: no effects were detected on locomotor activity or body temperature
[3]
  entry into the CSF from the periphery: only small amounts
[4]; ASK1476 dosing spectrum
  visceral malaise signal (notably high kaolin intake in a few animals): not observed in any
[4]; low doses, sc once daily
  kaolin intake at low doses: below 4 g/d
[4]; sc once daily, ASK1476 6-300 nmol/kg F(1.80, 12.59) = 2.26, p = 0.148, OXT 20-1200 nmol/kg F(1.51, 10.52) = 1.73, p = 0.223
  kaolin intake, effect of treatment: no significant effect of treatment
[5]; peripheral administration, diet-induced and genetically obese rodent models, ref Maejima et al., 2011, Morton et al., 2012, Blevins et al.
  food intake, energy expenditure and weight gain: reduces food intake, enhances energy expenditure, and prevents or reduces weight gain
[5]; ref Blevins et al.
  energy expenditure / weight loss in diet-induced obese non-human primates: elicits weight loss, in part, by increasing energy expenditure
[6]
  half-life in vivo: ~5 min
Toxicity / mortality
  adverse effects or tolerability issues: No adverse effects or tolerability issues were observed
[7]; 28-d treatment
  compensatory weight gain / weight regain following nadir: significantly lower rates of weight regain following body weight nadir
[7]; 28-day treatment, sc once daily
  average day of body weight nadir: 14 days
[7]; OXT: 95% CI −0.23 to 0.01, p = 0.069
  daily percent change of body weight from nadir, mean difference vs. vehicle: −0.11%
[7]; after 28-day Tx, ASK1476 to 120 or OXT 600 nmol/kg/d sc, n = 8, Mean ± SD, oxytocin * p < 0.05 vs vehicle, ANOVA p 0.041
  Body weight, post-treatment: 615.143.2* g
[7]; long-term study, titration phases
  reduction in body weight, OXT 600 nmol/kg/d compared with ASK1476 30 and 60 nmol/kg: significantly greater reductions in body weight
[7]; mean, SD 0.04% ASK1476, 0.16% OXT, vehicle 0.34% (SD 0.05%)
  average daily individual percent change of body weight from nadir to end of treatment: 0.23%
[7]; treatment days 9-28
  weight stability during final 20 days: remained weight stable
[8]
  water intake: not significantly affected
[9]; OXT 20 nmol/kg sc once daily vs 3-day saline baseline, n = 8, 95% CI −19.40 to −2.94, p = 0.0106
  reduction in 3-day averaged food intake: -11.17 kcal/day
[9]; sc once daily, 3 days, n = 8
  lowest dose with significant reduction in 3-day averaged food intake: 20 nmol/kg
[9]; sc once daily, ASK1476 F(2.84, 19.86) = 6.52, p = 0.003, OXT F(1.89, 13.25) = 9.49, p = 0.003
  interaction of treatment and dose on 3-day averaged food intake: significant interaction
[10]; ASK1476 6-300 nmol/kg, OXT 20-1200 nmol/kg, 3 days
  body weight gain across dosing spectrum: Significant reductions in body weight gain; also recorded: effective in reducing body weight gain across the dose spectrum
[10]; ASK1476 F(2.08, 15.54) = 9.50, p = 0.002, OXT F(2.40, 16.79) = 16.98, p < 0.0001
  interaction of treatment and dose on body weight change: significant interaction
hOXTR
  EC50: 2.3 nM
[11]
  affinity for the OXTR compared with the V1aR: fivefold greater affinity
[12]; OXT 600 nmol/kg/d 28 days, 95% CI −97.2 to 7.2, p = 0.103
  fat mass, difference vs vehicle: -45.0 g
[12]; OXT 600 nmol/kg/d 28 days, 95% CU −109.8 to −5.4, p = 0.028
  lean mass, difference vs vehicle: -57.6 g
[12]; after 28-day Tx, n = 8, Mean ± SD, oxytocin * p < 0.05 vs vehicle, ANOVA p 0.015
  Lean mass, post-treatment: 416.531.9* g
